Experimental data published in the supplement of paper PMC10331698.
± gives the standard deviation of the averaged measurements.

Tests used:
Test in all cases: level (log10 ratio to DMSO vehicle control); higher = higher biomarker level / cell amount than vehicle control
Details in all cases: in DMSO
Perfluoropentanoic acid = compound: O=C(O)C(F)(F)C(F)(F)C(F)(F)C(F)(F)F [Perfluoropentanoic acid]
Protocol: (§1)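 BioMAP Diversity Plus panel of 12 human primary cell co-culture systems (3C, 4H, LPS, SAg, BT, BF4T, BE3C, CASM3C, HDF3CGF, KF3CT, MyoF, Mphg). Compounds were added 1 h before stimulation and left for 24 h (MyoF 48 h; BT 72 h for soluble read-outs or 6 d for IgG). Biomarkers were read by ELISA, cytotoxicity by SRB, PBMC viability and proliferation by Alamar Blue. Each well value was divided by the mean of 8 DMSO control wells on the same plate and log10 transformed; duplicate blinded samples were tested at 4 concentrations.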

[1] = compound: C=C(C)C(=O)OCCC(F)(F)C(F)(F)C(F)(F)C(F)(F)C(F)(C(F)(F)F)C(F)(F)F [(Perfluoro-5-methylhexyl)ethyl 2-methylprop-2-enoate]
Protocol: as §1

[2] = compound: O=C(O)C(F)(F)C(F)(F)C(F)F [4H-Perfluorobutanoic acid]
Protocol: as §1

[3] = compound: O=C(O)C(F)(F)C(F)(F)C(F)(F)C(F)(F)C(F)(F)C(F)(F)C(F)(F)C(F)F [9-H-Perfluorononanoic acid]
Protocol: as §1

Pentafluoropropionamide = compound: NC(=O)C(F)(F)C(F)(F)F [Pentafluoropropionamide]
Protocol: as §1

Perfluoroheptanoic acid = compound: O=C(O)C(F)(F)C(F)(F)C(F)(F)C(F)(F)C(F)(F)C(F)(F)F [Perfluoroheptanoic acid]
Protocol: as §1

Heptafluorobutyramide = compound: NC(=O)C(F)(F)C(F)(F)C(F)(F)F [Heptafluorobutyramide]
Protocol: as §1

Row | Test System | level (log10) (Perfluoropentanoic acid; 6700 nM) | level (log10) (Perfluoropentanoic acid; 20000 nM) | level (log10) (Perfluoropentanoic acid; 60000 nM) | level (log10) ([1]; 6700 nM) | level (log10) ([1]; 20000 nM) | level (log10) ([2]; 6700 nM) | level (log10) ([2]; 20000 nM) | level (log10) ([2]; 60000 nM) | level (log10) ([3]; 6700 nM) | level (log10) ([3]; 20000 nM) | level (log10) ([3]; 60000 nM) | level (log10) (Pentafluoropropionamide; 6700 nM) | level (log10) (Pentafluoropropionamide; 20000 nM) | level (log10) (Pentafluoropropionamide; 60000 nM) | level (log10) (Perfluoroheptanoic acid; 6700 nM) | level (log10) (Perfluoroheptanoic acid; 20000 nM) | level (log10) (Perfluoroheptanoic acid; 60000 nM) | level (log10) (Heptafluorobutyramide; 6700 nM) | level (log10) (Heptafluorobutyramide; 20000 nM) | level (log10) (Heptafluorobutyramide; 60000 nM)
1 | BE3C:uPA | -0.0115 ± 0.0021 | -0.013 ± 0.0057 | 0.004 ± 0.018 | -0.001 ± 0.016 | -0.0005 ± 0.016 | -0.016 ± 0.05 | -0.009 ± 0.016 | 0.0055 ± 0.06 | 0.0085 ± 0.0021 | 0.003 ± 0.014 | -0.002 ± 0.0028 | -0.0305 ± 0.028 | -0.0265 ± 0.015 | -0.011 ± 0.014 | -0.002 ± 0.0042 | 0.0055 ± 0.0035 | 0.0255 ± 0.015 | -0.011 ± 0.02 | -0.017 ± 0.024 | -0.0145 ± 0.019
2 | CASM3C:CCL2/MCP-1 | -0.0085 ± 0.005 | -0.0125 ± 0.019 | -0.0015 ± 0.015 | 0.002 ± 0.023 | 0.0105 ± 0.005 | 0.006 | -0.0065 ± 0.012 | 0.0065 ± 0.016 | 0.0125 ± 0.0092 | -0.0015 ± 0.00071 | 0.017 ± 0.0071 | -0.003 ± 0.021 | -0.01 ± 0.0014 | 0.0075 ± 0.013 | -0.0115 ± 0.015 | -0.013 ± 0.011 | 0.032 ± 0.044 | -0.004 ± 0.0057 | -0.0145 ± 0.0021 | 0.015 ± 0.037
3 | CASM3C:CD87/uPAR | -0.027 ± 0.052 | -0.031 ± 0.027 | -0.0175 ± 0.005 | -0.0305 ± 0.013 | -0.035 | -0.016 ± 0.013 | 0 ± 0.02 | 0.0055 ± 0.022 | -0.001 ± 0.014 | 0.0045 ± 0.011 | 0.029 ± 0.0057 | -0.031 ± 0.05 | -0.012 ± 0.0071 | -0.019 ± 0.03 | -0.0005 ± 0.0078 | -0.019 ± 0.031 | -0.0055 ± 0.036 | -0.0065 ± 0.026 | -0.0115 ± 0.032 | -0.033 ± 0.054
4 | CASM3C:CD106/VCAM-1 | -0.0225 ± 0.0078 | -0.0565 ± 0.029 | -0.009 ± 0.0057 | -0.017 ± 0.014 | -0.0175 ± 0.026 | 0.031 ± 0.057 | 0.041 ± 0.014 | 0.04 ± 0.0085 | -0.0215 ± 0.012 | -0.019 ± 0.02 | -0.0315 ± 0.005 | -0.016 ± 0.016 | -0.014 ± 0.02 | -0.022 ± 0.011 | -0.0085 ± 0.0035 | -0.0135 ± 0.021 | 0.012 ± 0.054 | -0.0215 ± 0.053 | -0.0085 ± 0.033 | -0.0265 ± 0.059
5 | CASM3C:CD141/Thrombomodulin | -0.0065 ± 0.016 | -0.0135 ± 0.035 | 0.0105 ± 0.005 | -0.0185 ± 0.069 | 0.0165 ± 0.098 | -0.0005 ± 0.016 | 0 ± 0.081 | -0.0145 ± 0.028 | -0.003 ± 0.0099 | -0.0075 ± 0.0035 | 0.0075 ± 0.0021 | -0.023 ± 0.034 | -0.0315 ± 0.011 | -0.0555 ± 0.015 | -0.0085 ± 0.025 | 0.0065 ± 0.0064 | 0.011 ± 0.033 | 0.017 ± 0.033 | 0.0065 ± 0.033 | -0.016 ± 0.041
6 | CASM3C:CD142/Tissue Factor | -0.002 ± 0.0071 | -0.013 ± 0.024 | -0.0225 ± 0.056 | -0.037 ± 0.024 | -0.0265 ± 0.056 | 0.0045 ± 0.14 | -0.039 ± 0.093 | -0.0415 ± 0.037 | -0.0025 ± 0.0078 | -0.012 ± 0.028 | 0.006 ± 0.017 | -0.0025 ± 0.022 | -0.0095 ± 0.018 | -0.0295 ± 0.026 | -0.0065 ± 0.012 | 0.015 ± 0.016 | 0.015 ± 0.071 | 0.007 ± 0.034 | -0.0105 ± 0.05 | -0.031 ± 0.041
7 | CASM3C:CXCL8/IL-8 | -0.01 ± 0.0085 | -0.019 ± 0.011 | -0.0015 ± 0.013 | 0.005 ± 0.037 | 0.019 ± 0.028 | -0.003 ± 0.0057 | 0.004 ± 0.0042 | 0.0135 ± 0.033 | -0.002 ± 0.0057 | -0.0045 ± 0.00071 | 0.0035 ± 0.0035 | -0.007 ± 0.014 | -0.017 ± 0.0071 | -0.0005 ± 0.012 | -0.0085 ± 0.0064 | -0.002 ± 0.0042 | 0.046 ± 0.018 | -0.005 ± 0.0057 | -0.007 ± 0.0099 | 0.0075 ± 0.015
8 | CASM3C:CXCL9/MIG | 0.001 ± 0.062 | -0.0015 ± 0.036 | 0.043 ± 0.017 | 0.0335 ± 0.029 | 0.0445 ± 0.046 | -0.0035 ± 0.028 | 0.0125 ± 0.00071 | 0.032 ± 0.017 | -0.024 ± 0.017 | -0.0155 ± 0.0092 | 0.0205 ± 0.00071 | 0 ± 0.0014 | -0.0035 ± 0.005 | -0.008 ± 0.0042 | 0.006 ± 0.023 | 0.015 ± 0.016 | 0.054 ± 0.051 | -0.0035 ± 0.00071 | -0.01 ± 0.0014 | 0.0005 ± 0.011
9 | CASM3C:HLA-DR | -0.019 ± 0.014 | -0.022 ± 0.023 | 0.003 ± 0.054 | -0.0175 ± 0.019 | -0.01 ± 0.0085 | -0.007 ± 0.0028 | 0.0435 ± 0.033 | 0.006 ± 0.024 | -0.01 ± 0.0071 | -0.0145 ± 0.0092 | 0.0025 ± 0.012 | -0.005 ± 0.0042 | 0.0045 ± 0.0092 | -0.001 ± 0.018 | -0.009 ± 0.0085 | -0.0315 ± 0.005 | -0.004 ± 0.052 | 0.003 ± 0.024 | -0.0025 ± 0.0021 | -0.012 ± 0.038
10 | CASM3C:IL-6 | -0.02 ± 0.028 | -0.028 ± 0.027 | 0.014 ± 0.047 | -0.035 ± 0.0042 | 0.0345 ± 0.028 | -0.0125 ± 0.0035 | 0.0045 ± 0.023 | 0.0225 ± 0.021 | -0.012 ± 0.0071 | -0.036 ± 0.0042 | -0.0045 ± 0.05 | -0.021 ± 0.017 | -0.025 ± 0.0028 | -0.003 ± 0.041 | -0.0135 ± 0.0078 | -0.0205 ± 0.021 | 0.008 ± 0.085 | -0.0275 ± 0.033 | -0.0105 ± 0.012 | 0.013 ± 0.042
11 | CASM3C:LDLR | -0.0085 ± 0.0064 | -0.0045 ± 0.0078 | -0.0095 ± 0.025 | -0.032 ± 0.03 | 0.018 ± 0.025 | -0.0785 ± 0.037 | -0.039 ± 0.0042 | -0.0235 ± 0.026 | -0.003 ± 0.018 | -0.005 ± 0.0042 | 0.009 ± 0.024 | 0.003 ± 0.042 | 0.0045 ± 0.011 | 0.0295 ± 0.015 | 0.0175 ± 0.0092 | 0.012 ± 0.016 | 0.0125 ± 0.039 | -0.017 ± 0.0014 | -0.0145 ± 0.0064 | 0.024 ± 0.047
12 | CASM3C:M-CSF | -0.0055 ± 0.016 | -0.004 ± 0.017 | 0.0045 ± 0.032 | -0.009 ± 0.0085 | 0.0195 ± 0.036 | 0.004 ± 0.045 | -0.009 ± 0.016 | 0.059 ± 0.027 | -0.007 ± 0.0014 | -0.012 ± 0.0028 | 0.0205 ± 0.028 | -0.021 ± 0.038 | -0.0125 ± 0.00071 | 0.0205 ± 0.035 | -0.004 ± 0.028 | -0.005 ± 0.028 | 0.0035 ± 0.049 | -0.0495 ± 0.0035 | -0.0375 ± 0.018 | 0.022 ± 0.073
13 | CASM3C:PAI-I | -0.0095 ± 0.011 | -0.007 ± 0.0042 | 0.0005 ± 0.011 | -0.004 ± 0.0014 | 0.002 ± 0.0014 | 0.009 ± 0.0071 | 0.006 ± 0.0071 | 0.0075 ± 0.0021 | 0.0135 ± 0.021 | -0.004 ± 0.0042 | 0.0085 ± 0.022 | -0.009 ± 0.0099 | -0.007 ± 0.014 | 0.0005 ± 0.0064 | -0.0005 ± 0.018 | 0.0035 ± 0.011 | 0.0105 ± 0.015 | -0.0045 ± 0.0021 | -0.0045 ± 0.012 | 0.0105 ± 0.0035
